Results published in PubChem BioAssay (NCI).
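Interpolation was linear, between the two tested concentrations surrounding the appropriate level; five concentrations were tested over 48 hours in 96-well plates. GI50 = concentration required for 50% inhibition of growth. TGI is the concentration that stops growth completely.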

What was measured:
Test in all cases: NCI tumour cell line growth inhibition, 48 h
[1] = system: 786-0 renal
[2] = system: A498 renal
[3] = system: A549 NSCLC
[4] = system: ACHN renal
[5] = system: BT-549 breast
[6] = system: CAKI-1 renal
[7] = system: CCRF-CEM leukemia
[8] = system: COLO 205 colon
[9] = system: DU-145 prostate
[10] = system: EKVX NSCLC
[11] = system: HCC-2998 colon
[12] = system: HCT-116 colon
[13] = system: HCT-15 colon
[14] = system: HL-60(TB) leukemia
[15] = system: HOP-62 NSCLC
[16] = system: HOP-92 NSCLC
[17] = system: HS 578T breast
[18] = system: HT29 colon
[19] = system: IGROV1 ovarian
[20] = system: K-562 leukemia
[21] = system: KM12 colon
[22] = system: LOX IMVI melanoma
[23] = system: M14 melanoma
[24] = system: MALME-3M melanoma
[25] = system: MCF7 breast
[26] = system: MDA-MB-231 breast
[27] = system: MDA-MB-435
[28] = system: MOLT-4 leukemia
[29] = system: NCI-H226 lung
[30] = system: NCI-H23 lung
[31] = system: NCI-H460 lung
[32] = system: NCI-H522 lung
[33] = system: NCI/ADR-RES ovarian
[34] = system: OVCAR-3 ovarian
[35] = system: OVCAR-4 ovarian
[36] = system: OVCAR-5 ovarian
[37] = system: OVCAR-8 ovarian
[38] = system: PC-3 prostate
[39] = system: RPMI-8226 leukemia
[40] = system: RXF 393 renal
[41] = system: SF-268 CNS
[42] = system: SF-295 CNS
[43] = system: SF-539 CNS
[44] = system: SK-MEL-2 melanoma
[45] = system: SK-MEL-28 melanoma
[46] = system: SK-MEL-5 melanoma
[47] = system: SK-OV-3 ovarian
[48] = system: SN12C renal
[49] = system: SNB-19 CNS
[50] = system: SNB-75 CNS
[51] = system: SR leukemia
[52] = system: SW-620 colon
[53] = system: T-47D breast
[54] = system: TK-10 renal
[55] = system: U251 CNS
[56] = system: UACC-257 melanoma
[57] = system: UACC-62 melanoma
[58] = system: UO-31 renal
[59] = system: MDA-N

With Oc1ccc(C(c2ccc(O)cc2)c2ccc(Br)cn2)cc1 the GI50 [1] was 21.5 µM, the TGI [1] was over 79.7 µM and the GI50 [2] was 0.6 µM. The TGI [2] was 16.1 µM, the GI50 [3] was 1.95 µM and the TGI [3] was 60 µM. The GI50 [4] was 0.45 µM, the TGI [4] was 14.5 µM and the GI50 [5] was 0.26 µM. It also gave a TGI [5] of 0.788 µM, a GI50 [6] of 20.1 µM and a TGI [6] of over 100 µM. It also gave a GI50 [7] of 14.7 µM, a TGI [7] of over 100 µM and a GI50 [8] of 0.308 µM. The TGI [8] was 3.44 µM, the GI50 [9] was 2.8 µM and the TGI [9] was over 69.3 µM. The GI50 [10] was 0.358 µM, the TGI [10] was 3.85 µM and the GI50 [11] was 0.322 µM. For the same compound, the TGI [11] was 2.98 µM, the GI50 [12] was 0.517 µM and the TGI [12] was 14.4 µM. The GI50 [13] was 0.425 µM, the TGI [13] was 16.9 µM and the GI50 [14] was 10.6 µM. It also gave a TGI [14] of 44 µM, a GI50 [15] of 6.12 µM and a TGI [15] of over 62 µM. It also gave a GI50 [16] of 0.25 µM, a TGI [16] of 1.44 µM and a GI50 [17] of 0.242 µM. It also gave a TGI [17] of 0.593 µM, a GI50 [18] of 5.99 µM and a TGI [18] of 98.7 µM. It also gave a GI50 [19] of 0.476 µM, a TGI [19] of 42.7 µM and a GI50 [20] of 14.4 µM. For the same compound, the TGI [20] was over 100 µM, the GI50 [21] was 0.454 µM and the TGI [21] was 18.9 µM. It also gave a GI50 [22] of 0.282 µM, a TGI [22] of 0.895 µM and a GI50 [23] of 14.5 µM. The TGI [23] was 47.4 µM, the GI50 [24] was 17.7 µM and the TGI [24] was 59.8 µM. The GI50 [25] was 0.264 µM, the TGI [25] was 0.732 µM and the GI50 [26] was 13.4 µM. The TGI [26] was 49.2 µM, the GI50 [27] was 20 µM and the TGI [27] was 65.9 µM. The GI50 [28] was 21.3 µM, the TGI [28] was 76.4 µM and the GI50 [29] was 0.243 µM. The TGI [29] was 0.651 µM, the GI50 [30] was 0.267 µM and the TGI [30] was 0.772 µM. For the same compound, the GI50 [31] was 20.7 µM, the TGI [31] was 49.1 µM and the GI50 [32] was 1.43 µM. It also gave a TGI [32] of 46.6 µM, a GI50 [33] of 0.229 µM and a TGI [33] of 0.55 µM. It also gave a GI50 [34] of 0.0963 µM, a TGI [34] of 0.411 µM and a GI50 [35] of 0.101 µM. For the same compound, the TGI [35] was 0.525 µM, the GI50 [36] was 13.7 µM and the TGI [36] was over 71 µM. The GI50 [37] was 0.276 µM, the TGI [37] was 0.786 µM and the GI50 [38] was 0.257 µM. The TGI [38] was 0.72 µM, the GI50 [39] was 15.6 µM and the TGI [39] was 58.6 µM. For the same compound, the GI50 [40] was 0.217 µM, the TGI [40] was 0.532 µM and the GI50 [41] was 21.5 µM. For the same compound, the TGI [41] was over 91 µM, the GI50 [42] was 0.331 µM and the TGI [42] was 1.63 µM. It also gave a GI50 [43] of 5.28 µM, a TGI [43] of 27.6 µM and a GI50 [44] of 1.69 µM. The TGI [44] was 21 µM, the GI50 [45] was 21.3 µM and the TGI [45] was 60 µM. For the same compound, the GI50 [46] was 11.9 µM, the TGI [46] was 24.5 µM and the GI50 [47] was 12.5 µM. The TGI [47] was 65.4 µM, the GI50 [48] was 0.325 µM and the TGI [48] was 3.82 µM. It also gave a GI50 [49] of 16.1 µM, a TGI [49] of over 100 µM and a GI50 [50] of 0.192 µM. It also gave a TGI [50] of 0.635 µM, a GI50 [51] of 26 µM and a TGI [51] of over 86.3 µM. The GI50 [52] was 35.9 µM, the TGI [52] was over 100 µM and the GI50 [53] was 0.177 µM. For the same compound, the TGI [53] was 0.531 µM, the GI50 [54] was 0.258 µM and the TGI [54] was 1.13 µM. The GI50 [55] was 18.5 µM, the TGI [55] was 50.9 µM and the GI50 [56] was 17.4 µM. For the same compound, the TGI [56] was 61.5 µM, the GI50 [57] was 3.71 µM and the TGI [57] was 15.5 µM. It also gave a GI50 [58] of 6.14 µM and a TGI [58] of 40.7 µM.
Work on Nc1nc(Nc2ccccc2)c2[nH]cnc2n1 yielded a TGI [1] of over 100 µM, a TGI [2] of 81.7 µM and a TGI [3] of over 100 µM. The TGI [4] was over 100 µM, the TGI [6] was over 100 µM and the TGI [7] was over 100 µM. The TGI [8] was over 100 µM, the TGI [9] was over 100 µM and the TGI [10] was over 100 µM. For the same compound, the TGI [11] was over 100 µM, the TGI [12] was over 100 µM and the TGI [13] was over 100 µM. It also gave a TGI [14] of over 100 µM, a TGI [15] of over 100 µM and a TGI [16] of 92.4 µM. For the same compound, the TGI [18] was over 100 µM, the TGI [19] was over 100 µM and the TGI [20] was over 100 µM. The TGI [21] was over 100 µM, the TGI [22] was over 100 µM and the TGI [23] was over 100 µM. The TGI [24] was over 100 µM, the TGI [25] was over 100 µM and the TGI [26] was over 100 µM. For the same compound, the TGI [27] was over 100 µM, the TGI [59] was over 100 µM and the TGI [28] was over 100 µM. It also gave a TGI [29] of over 100 µM, a TGI [30] of over 100 µM and a TGI [32] of over 100 µM. For the same compound, the TGI [33] was over 100 µM, the TGI [34] was over 100 µM and the TGI [35] was over 100 µM. For the same compound, the TGI [37] was over 100 µM, the TGI [38] was over 100 µM and the TGI [39] was over 100 µM. For the same compound, the TGI [40] was over 100 µM, the TGI [42] was over 100 µM and the TGI [43] was over 100 µM. For the same compound, the TGI [44] was over 100 µM, the TGI [45] was over 100 µM and the TGI [46] was over 100 µM. It also gave a TGI [47] of over 100 µM, a TGI [48] of over 100 µM and a TGI [49] of over 100 µM. For the same compound, the TGI [50] was over 100 µM, the TGI [52] was over 100 µM and the TGI [53] was over 100 µM. It also gave a TGI [54] of over 100 µM, a TGI [55] of over 100 µM and a TGI [56] of over 100 µM. It also gave a TGI [57] of over 100 µM and a TGI [58] of over 100 µM.
